Measurements: article PMC12375981 (Protein Science : A Publication of the Protein Society, 2025)

Key:
E166V 3CL^pro = conditions: cited from earlier work
[1] = system: E166V mutation of 3CL^pro; conditions: cited from earlier work
S1D 3CL^pro [2] = target: T1, S1D 3CL^pro (Severe acute respiratory syndrome coronavirus 2, UniProt P0DTD1, S3264D); assay type: biochemical, SARS‐CoV‐2
A191E 3CL^pro = A191E 3CL^pro (Severe acute respiratory syndrome coronavirus 2, UniProt P0DTD1, A3454E); assay type: biochemical, SARS‐CoV‐2
S1D 3CL^pro [3] = target: T1, S1D 3CL^pro; assay type: binding, SARS‐CoV‐2
[4] = target: S1D + A191E 3CL^pro (double mutant, DM) (Severe acute respiratory syndrome coronavirus 2, UniProt P0DTD1, A3454E/S3264D); assay type: biochemical, SARS‐CoV‐2
DM (S1D + A191E) 3CL^pro = DM (S1D + A191E) 3CL^pro (Severe acute respiratory syndrome coronavirus 2, UniProt P0DTD1, A3454E/S3264D); assay type: binding, SARS‐CoV‐2

In the case of `CC(C)(C)[C@H](NC(=O)C(F)(F)F)C(=O)N1C[C@H]2[C@@H]([C@H]1C(=O)N[C@H](C#N)C[C@@H]1CCNC1=O)C2(C)C` [nirmatrelvir], the “increase in K i” value (E166V 3CL^pro) is given as “more than 7000 fold” and the “increase in EC50” value [1] is given as “up to 255 fold”.
In the case of `COc1cccc2[nH]c(C(=O)N[C@@H](CC(C)C)C(=O)N[C@@H](C[C@@H]3CCNC3=O)C(=O)COP(=O)(O)O)cc12` [lufotrelvir], the “K D” value (S1D 3CL^pro [2]) is reported as 290 ± 30 nM, the “K D f c” value (S1D 3CL^pro [2]) is reported as 6000 ± 700 nM and the “K D/f c” value (S1D 3CL^pro [2]) is reported as 13 ± 2 nM. For the same compound, the f c (S1D 3CL^pro [2]) was 21 ± 1, the “inhibitor concentration at which the mutant is more active than the WT” value (S1D 3CL^pro [2]) was “greater than 10 nM” and the “inhibitor concentration for full inhibition” value (S1D 3CL^pro [2]) was “exceeded 1 μM”. The “reduction in affinity (K i) compared to the WT” value (S1D 3CL^pro [2]) was 3.3 fold, the “reduction in affinity (K i) compared to the WT” value (A191E 3CL^pro) was 6.4 fold and the “effect of inhibitor on monomer/dimer peaks” value (S1D 3CL^pro [3]) was “eliminated the monomeric peaks”. For the same compound, the “K D” value [4] was 140 ± 10 nM, the “K D f c” value [4] was 2300 ± 300 nM and the “K D/f c” value [4] was 9 ± 1 nM. The f c [4] was 16 ± 1, the “inhibitor concentration at which the mutant is more active than the WT” value [4] was at least 10 nM and the “reduction in affinity for the dimer (K i) compared to the WT” value [4] was 26 fold. The “effect of inhibitor on monomer/dimer peaks” value (DM (S1D + A191E) 3CL^pro) was “eliminated the monomeric peaks”.
